Assay results from patent US20230287336A1, “METHOD FOR IMPROVING FLAVONOID PHENYLPROPANOID COMPOUNDS IN SAUSSUREA INVOLUCRATA CELL CULTURE” (DALIAN PRACTICAL BIOTECHNOLOGY CO, .LTD, priority 2019, published 2023).
Read-outs that look alike come from different tables or passages of the source.

How the values were obtained:
Assay type in all cases: cell-based
[1] = system: Saussurea involucrata cell culture; assay: Dry cell weight / yield of dried cultures after culturing
Method: (1) Measurement of Dry Cell Weight Cell culture solution was poured into a 120-mesh stainless steel mesh and filtered to harvest cells, the cells were washed with distilled water 3 times, moisture on the surface of the cells was fully absorbed with absorbent paper, a fresh weight was measured, […]

[2] = system: Saussurea involucrata cell culture; assay: Content of total flavonoids in cultured cells, measured with a spectrophotometer (rutin standard curve)
Method: (2) Method for Determining Total Flavonoids of Saussurea involucrata:
Preparation of control solution: 10 mg of rutin control substance dried to a constant weight at 120° C. was precisely weighed and placed in a 50 mL volumetric flask, an appropriate amount of methanol was added, the mixture was heated in water bath to dissolve the rutin control substance and cooled down, methanol was added to the graduation line, and the mixture was shaken well. Then a control solution was obtained (0.2 mg of anhydrous rutin was contained in 1 mL of control solution);
Preparation of a standard curve: 1 mL, 2 mL, 3 mL, 4 mL, 5 mL and 6 mL of control solutions were precisely weighed and placed in 25 mL volumetric flasks respectively, water was added to 6 mL in each volumetric flask, 1 mL of 5% sodium nitrite solution was added, and the flasks were shaken well and placed for 6 min; 1 mL of 10% aluminum nitrate was added, and the flasks were shaken well and placed for 6 min; 10 mL of sodium hydroxide test solution was added, water was added to the graduation line, and the flasks were shaken well and placed for 15 min; a corresponding reagent was used as a blank, an absorbance was determined at 500 nm, and a standard curve was plotted with the absorbance as a longitudinal coordinate and a concentration as a horizontal coordinate;
Determination: About 0.10 g of coarse powder of this product was taken, precisely weighed and placed in a Soxhlet extractor, about 90 mL of methanol was added, the mixture was heated to reflux until an extracting solution became colorless (the number of reflux times for each sample should not be less than 4 and 2 hours) and transferred into a 50 mL volumetric flask, methanol was added to the graduation line, and the flask was shaken well.

[3] = system: Saussurea involucrata cell culture; assay: Contents of rutin, chlorogenic acid, syringin and 1,5-dicaffeoylquinic acid in cultured cells by HPLC
Method: (3) Content Determination of Phenylpropanoids
Cultured Saussurea involucrata cells dried to a constant weight were taken and ground to fine powder; about […] of fine powder was precisely weighed, placed in a test tube with a stopper and extracted ultrasonically with 50 mL of 20% methanol for 1 h; a weight loss was supplemented with methanol, the mixture was centrifuged at 15,000 r/min for 20 min, a supernatant was taken and filtered through a 0.45 μm filter membrane, and the contents of rutin, chlorogenic acid, syringin and 1,5-dicaffeoylquinic acid were determined simultaneously through HPLC. Shiseido capcell pak C18 MGII chromatographic column (4.6 mm×250 mm, 5 μm);
A mobile phase A was 0.2% of […] (containing 50 mmo/L KH2PO4), a mobile phase B was acetonitrile, and gradient elution was performed. Gradient conditions: 0 min (VA:VB=92:8)-20 min (VA:VB=90:10)-50 min (VA:VB=70:30)-60 min (VA:VB=50:50); flow velocity 1.0 mL/min^−1; column temperature 30° C.; detection wavelength 265 nm (syringin); sample size 20 μL.

[4] = cells dried at 50° C. for 24 h, additive and culture conditions as in each example
[5] = harvested suspension culture, medium, additive, time of addition and culturing time as in each example

| Compound | weight of cultures after being dried (yield of dry products) [1, 4] [g/L] | content of total flavonoids in the cells [2, 5] | content of 1,5-dicaffeoylquinic acid in the cells [3, 5] | content of chlorogenic acid in the cells [3, 5] | content of rutin in the cells [3, 5] | content of syringin in the cells [3, 5] | weight of cultures after being dried (yield of dry products) [1] [g/L] | content of total flavonoids in the cells [2] | content of 1,5-dicaffeoylquinic acid in the cells [3] | content of chlorogenic acid in the cells [3] | content of rutin in the cells [3] | content of syringin in the cells [3] |
| --- | --- | --- | --- | --- | --- | --- | --- | --- | --- | --- | --- | --- |
| O=C(O)C=Cc1ccccc1 [cinnamic acid] | 15 | more than 22 % of the cells (dry weight) | more than 2.81% | more than 1.66% | more than 0.066% | more than 1.45% | – | – | – | – | – | – |
| CC/C=C\CC1C(=O)CCC1CC(=O)OC (centres unmarked) [methyl jasmonate] | 20.4 | more than 24.1 % of the cells (dry weight) | more than 4.12% | more than 2.44% | more than 0.081% | more than 1.89% | – | – | – | – | – | – |
| O=C(O)C(=O)O [oxalic acid] | 16 | more than 19.6 % of the cells (dry weight) | more than 1.72% | more than 1.27% | more than 0.071% | more than 0.95% | – | – | – | – | – | – |
| N[C@@H](Cc1ccccc1)C(=O)O [phenylalanine] | 15 | more than 22.7 % of the cells (dry weight) | more than 2.48% | more than 1.28% | more than 0.078% | more than 2.07% | – | – | – | – | – | – |
| O=C(O)c1ccccc1O [salicylic acid] | 16.8 | more than 21.2 % of the cells (dry weight) | more than 3.55% | more than 1.86% | more than 0.072% | more than 1.09% | – | – | – | – | – | – |
| CC(=O)[O-].[Na+] [sodium acetate] | – | – | – | – | – | – | 15 | more than 21.8 % of the cells (dry weight) | more than 2.35% | more than 1.79% | more than 0.064% | more than 1.22% |
| N[C@@H](Cc1ccc(O)cc1)C(=O)O [tyrosine] | 18.2 | more than 19.4 % of the cells (dry weight) | more than 2.75% | more than 0.62% | more than 0.062% | more than 1.49% | – | – | – | – | – | – |
| silver nitrate | 16 | – | more than 2.97% | more than 1.47% | more than 0.065% | more than 1.38% | – | – | – | – | – | – |
